How the values were obtained:
[1] = Effect of light on (3Z)-lactone (isomerization); assay type: physicochemical; conditions: for isomerization in direct sunlight: quartz cuvette or surface of female cadavers, 2-3 days
Procedure: To determine whether light would promote the isomerization from (3Z) to (3E)-lactone, 20 mg of (3Z)-lactone was placed neat on a glass slide 10 mm below a UV light (UVG-54 handheld UV-lamp, 254 nm, 6w; UVP Upland Calif., USA) for three d. Subsamples (taken as 1 mg in a pipette) were analyzed by GC/MS at regular intervals and the ratio of (3E):(3Z)-lactone was recorded. In addition, 6 mg of each of (3Z)- and (3E)-lactones (neat) were coated on the quartz surface of a cuvette and exposed outdoors to sunlight at 11° C. mean temperature for 9 d for an average of 5 h a day. Finally, (3Z)-lactone was coated (4 mg) on the dorsal surface of abdomen and […] of 3 female EAB cadavers that were exposed to sunlight for 6 h per day for 1, 2 or 3 d at 10° C. mean temperature; cadavers were stored at 4° C. between sunny days. The lactones were removed from cuvettes and cadavers with hexane washing and analysed by GC/MS to determine the E:Z ratio.

A. planipennis [2] = experiment: Two-choice Y-tube olfactometer assay; assay type: in vivo, Agrilus planipennis; conditions: males; lactone 10 μg, (3Z)-hexenol 5 μg; chi-square test
Procedure: A Y-tube olfactometer (Analytical Research Systems Inc, Gainsville, Fla.) was used to test for attraction of A. planipennis to lactone isomers and host volatiles. […] Each arm was connected to a cylinder that contained the stimulus. Charcoal filtered air was passed into each arm at a flow rate of 1.2 L/min. Treatments included the pheromone alone: (3Z)-lactone (10 μg); (3E)-lactone (10 μg); and 60:40 (3E):(3Z)-lactone (10 μg). Next, we tested bark sesquiterpenes and a green leaf volatile alone: Phoebe oil (25 μg and 2.5 μg) and (3Z)-hexenol (5 μg). We then tested the pheromone combined with bark sesquiterpenes: (3Z)-lactone (10 μg)+Phoebe oil (at both 25 μg and 2.5 μg); (3E)-lactone (10 μg)+Phoebe oil (at both 25 μg and 2.5 μg). Finally, we tested the pheromone combined with the green leaf volatile: (3Z)-lactone (10 μg)+(3Z)-hexenol (5 μg); and (3E)-lactone (10 μg)+(3Z)-hexenol (5 μg). Each stimulus (l μl for single compound treatments and a total of 2 μl for two-compound treatments) was diluted in hexane, placed on a strip of filter paper and given one minute for the solvent to evaporate before being placed in the olfactometer. A second filter paper, treated with the equivalent volume of solvent was placed in the other arm of the olfactometer to serve as the control. The apparatus was rinsed with acetone after each treatment, and the arm attached to the test stimulus was randomized between replicates.
For each treatment, we tested increasing numbers of adults until we obtained a minimum of 12 beetles responding to the stimuli (either positively or negatively). To obtain this minimum, we tested 15-54 beetles per treatment. For each trial, a single A. planipennis (mature virgin male or female, >10 days old) was given ten minutes to choose between the two stimuli; adults were used only once in the bioassay. […] A chi-square test was conducted for each independent trial.

A. planipennis [3] = experiment: Field trapping experiment 2 (2009), purple prism traps, Ontario; assay type: in vivo, Agrilus planipennis; conditions: as compared to the Phoebe oil alone
Procedure: Field trapping. Three trapping experiments were carried out in green ash plantations (F. pennsylvanica Marsch) with low-to-moderate A. planipennis populations about 40 km southeast of Sarnia, Ontario (42° 58′ 0 N, 82° 24′ 0 W) in 2008, 2009 and 2010. Trees at these sites were generally healthy in appearance with low or no signs of decline, and only a small number of trees had obvious signs/symptoms of infestation by A. planipennis. In Ontario sites, trees were 20-25 years old, 4-6 m tall, 10-15 cm in diameter, and spaced about 2 m apart within a row and 2.5 m between rows. In 2010, the trapping experiment was replicated at four sites in Michigan, USA, in addition to the sites in Ontario. Sites in Michigan were 10-100 years old, 10-30 m tall, 15-70 cm in diameter, and located in a mixed woodlot. […] Traps were checked every 2 weeks and A. planipennis were collected, counted and sexed. […]
The effect of each attractant on mean catch of female and male A. planipennis was analyzed independently using ANOVA and a randomized complete block design. Sites were analyzed separately in 2009 due to differences in sex ratios. In 2010, sites in Ontario were analyzed separately from those in Michigan due to the considerable differences in stand conditions and height of traps with respect to the ash canopy. […]

O=C1C/C=C\CCCCCCCCO1 [(3Z)-lactone, (3Z)-dodecen-12-olide]
effect of storing in a pyrex container (filters out UV-light) [1]: preventing photoisomerisation | conjugated isomer formed on UV exposure ([1]; UV lamp 254 nm, GC/MS): < 1% | (3E):(3Z) ratio, initial lactone sample ([1]; before UV exposure): 0.028 | (3E):(3Z) ratio after exposure to UV light ([1]; neat, UV lamp 254 nm, three d): 0.60 | stability to isomerization under normal laboratory fluorescent lighting ([1]; preliminary studies): very stable | isomerization in direct sunlight [1]: very slow isomerization | attraction of males in Y-tube olfactometer vs hexane control (A. planipennis [2]): not | number of male or female A. planipennis captured, effect of lactone alone or with Phoebe oil (A. planipennis [3]): neither (3Z) nor (3E)-lactone alone, or in combination with Phoebe oil, significantly increased

O=C1C/C=C/CCCCCCCCO1 [(3E)-lactone, (3E)-dodecen-12-olide]
isomerization in direct sunlight [1]: very slow isomerization | attraction of males in Y-tube olfactometer vs hexane control (A. planipennis [2]): significantly attracted | number of male or female A. planipennis captured, effect of lactone alone or with Phoebe oil (A. planipennis [3]): neither (3Z) nor (3E)-lactone alone, or in combination with Phoebe oil, significantly increased

Reference: patent US9226503B2, “Composition and method for attraction of emerald ash borer Agrilus planipennis fairmaire (coleoptera: buprestidae)” (Her Majesty the Queen in Right of Canada, as represented by …, priority 2011, dated 2016)
